Test system: C. albicans 10231
Assay: Skin conditioner impact on antimicrobial efficacy
Type: cell-based, Candida albicans
Settings: skin conditioner added to prototype composition
From the text: FIG. 6 is a bar graph showing the effect on the antimicrobial efficacy (average log reduction of C. albicans 10231) for three prototype antimicrobial compositions sharing all the same ingredients but differing in the amount of added PEG-45 palm kernel glycerides (ranging from 0 to 1.0%) in comparison to a commercial antimicrobial soap (ECOLAB Equi-Soft™ soap).

PEG-45 palm kernel glycerides
impact on the efficacy: negative impact

Reference: patent publication US10799433B2, “Foaming antimicrobial compositions” (S.C. Johnson & Son, Inc., priority 2016, dated 2020)
